Measured values as given in ChEMBL document CHEMBL1649254, “A Ser29Leu substitution in the cytosine deaminase Fca1p is responsible for clade-specific flucytosine resistance in Candida dubliniensis” (2009).
Values after ≈ are worked out from the molar mass of the structure shown.

What was measured:
Assay type in all cases: functional
[1] = system: Candida dubliniensis; test: […] activity against Candida dubliniensis isolate SA108 of Cd25 fingerprint group 3 and ITS genotype 3 by CLSI M27-A2 method
[2] = system: Candida dubliniensis; test: […] activity against 5FC- resistant Candida dubliniensis isolate harboring plasmid p7276T1 carrying CdFCA1 gene by broth microdilution method
[3] = system: Candida dubliniensis; test: […] activity against 5FC- resistant Candida dubliniensis isolate harboring plasmid p7276T2 carrying CdFCA1 gene by broth microdilution method
[4] = system: Candida dubliniensis; test: […] activity against 5FC- […] Candida dubliniensis isolate SA109T2 harboring plasmid pNIM1 carrying CdFCA1 gene by broth microdilution method in presence of 25 ug/ml DOX
[5] = system: Candida dubliniensis; test: […] activity against 5FC- […] Candida dubliniensis isolate SA109T1 harboring plasmid pNIM1 carrying CdFCA1 gene by broth microdilution method in presence of 25 ug/ml DOX
[6] = system: Candida dubliniensis; test: […] activity against 5FC- […] Candida dubliniensis isolate SA113T1 harboring plasmid pNIM1 carrying CdFCA1 gene by broth microdilution method in presence of 25 ug/ml DOX
[7] = system: Candida dubliniensis; test: […] activity against 5FC- resistant Candida dubliniensis isolate harboring plasmid p7276T1 carrying CdFCA1 gene by broth microdilution method in presence of 25 ug/ml DOX
[8] = system: Candida dubliniensis; test: […] activity against 5FC- resistant Candida dubliniensis isolate harboring plasmid p7276T2 carrying CdFCA1 gene by broth microdilution method in presence of 30 ug/ml DOX
[9] = system: Candida albicans; test: […] activity against Candida albicans harboring Ser29Leu substitution in the cytosine deaminase gene by EUCAST method
[10] = system: Candida dubliniensis; test: […] activity against Candida dubliniensis isolate SA113 by broth microdilution method
[11] = system: Candida dubliniensis; test: […] activity against Candida dubliniensis isolate harboring plasmid p7276 carrying GFP1T1 gene by broth microdilution method in presence of 30 ug/ml DOX
[12] = system: Candida dubliniensis; test: […] activity against Candida dubliniensis isolate SA109 by broth microdilution method
[13] = system: Candida dubliniensis; test: […] activity against 5FC- resistant Candida dubliniensis isolate harboring plasmid p7276T2 carrying CdFCA1 gene by broth microdilution method in presence of 25 ug/ml DOX
[14] = system: Candida dubliniensis; test: […] activity against Candida dubliniensis isolate Eg202 of Cd25 fingerprint group 3 and ITS genotype 4 by CLSI M27-A2 method
[15] = system: Candida dubliniensis; test: […] activity against Candida dubliniensis harboring plasmid p7276 by broth microdilution method
[16] = system: Candida dubliniensis; test: […] activity against Candida dubliniensis isolate p7276 of Cd25 fingerprint group 2 and ITS genotype 3 by CLSI M27-A2 method
[17] = system: Candida dubliniensis; test: […] activity against Candida dubliniensis isolate SA118 of Cd25 fingerprint group 3 and ITS genotype 3 by CLSI M27-A2 method
[18] = system: Candida dubliniensis; test: […] activity against Candida dubliniensis isolate SA100 of Cd25 fingerprint group 3 and ITS genotype 3 by CLSI M27-A2 method
[19] = system: Candida dubliniensis; test: […] activity against Candida dubliniensis isolate SA103 of Cd25 fingerprint group 3 and ITS genotype 3 by CLSI M27-A2 method
[20] = system: Candida dubliniensis; test: […] activity against Candida dubliniensis isolate harboring plasmid p7276 carrying GFP1T1 gene by broth microdilution method in presence of 25 ug/ml DOX
[21] = system: Candida dubliniensis; test: […] activity against Candida dubliniensis harboring plasmid p7276 by broth microdilution method in presence of 30 ug/ml DOX
[22] = system: Candida dubliniensis; test: […] activity against 5FC- susceptible Candida dubliniensis isolate SA113T1 harboring plasmid pNIM1 carrying CdFCA1 gene by broth microdilution method
[23] = system: Candida dubliniensis; test: […] activity against 5FC- […] Candida dubliniensis isolate SA109T2 harboring plasmid pNIM1 carrying CdFCA1 gene by broth microdilution method
[24] = system: Candida dubliniensis; test: […] activity against Candida dubliniensis isolate p7718 of Cd25 fingerprint group 3 and ITS genotype 4 by CLSI M27-A2 method
[25] = system: Candida dubliniensis; test: […] activity against 5FC-susceptible Candida dubliniensis by NCCLS M27-A2 broth microdilution method
[26] = system: Candida dubliniensis; test: […] activity against 5FC- resistant Candida dubliniensis isolate harboring plasmid p7276T3 carrying CdFCA1 gene by broth microdilution method in presence of 25 ug/ml DOX
[27] = system: Candida dubliniensis; test: […] activity against Candida dubliniensis isolate SA107 of Cd25 fingerprint group 3 and ITS genotype 3 by CLSI M27-A2 method
[28] = system: Candida dubliniensis; test: […] activity against Candida dubliniensis isolate SA105 of Cd25 fingerprint group 1 and ITS genotype 1 by CLSI M27-A2 method
[29] = system: Candida dubliniensis; test: […] activity against Candida dubliniensis isolate Eg206 of Cd25 fingerprint group 1 and ITS genotype 1 by CLSI M27-A2 method
[30] = system: Candida dubliniensis; test: […] activity against Candida dubliniensis isolate SA121 of Cd25 fingerprint group 3 and ITS genotype 4 by CLSI M27-A2 method
[31] = system: Candida dubliniensis; test: […] activity against 5FC- […] Candida dubliniensis isolate SA109T1 harboring plasmid pNIM1 carrying CdFCA1 gene by broth microdilution method
[32] = system: Candida dubliniensis; test: […] activity against Candida dubliniensis isolate Eg203 of Cd25 fingerprint group 1 and ITS genotype 1 by CLSI M27-A2 method
[33] = system: Candida dubliniensis; test: […] activity against 5FC- […] Candida dubliniensis isolate SA109T1 harboring plasmid pNIM1 carrying CdFCA1 gene by broth microdilution method in presence of 30 ug/ml DOX
[34] = system: Candida dubliniensis; test: […] activity against 5FC- resistant Candida dubliniensis isolate harboring plasmid p7276T1 carrying CdFCA1 gene by broth microdilution method in presence of 30 ug/ml DOX
[35] = system: Candida dubliniensis; test: […] activity against Candida dubliniensis isolate p6785 of Cd25 fingerprint group 2 and ITS genotype 3 by CLSI M27-A2 method
[36] = system: Candida albicans; test: […] activity against Candida albicans harboring Gly28Asp substitution in the cytosine deaminase gene by EUCAST method
[37] = system: Candida dubliniensis; test: […] activity against Candida dubliniensis isolate SA101 of Cd25 fingerprint group 1 and ITS genotype 1 by CLSI M27-A2 method
[38] = system: Candida dubliniensis; test: […] activity against Candida dubliniensis isolate SA113 by broth microdilution method in presence of 25 ug/ml DOX
[39] = system: Candida dubliniensis; test: […] activity against Candida dubliniensis isolate SA113 by broth microdilution method in presence of 30 ug/ml DOX
[40] = system: Candida dubliniensis; test: […] activity against Candida dubliniensis isolate Eg200 of Cd25 fingerprint group 3 and ITS genotype 4 by CLSI M27-A2 method
[41] = system: Candida dubliniensis; test: […] activity against 5FC- resistant Candida dubliniensis isolate harboring plasmid p7276T3 carrying CdFCA1 gene by broth microdilution method in presence of 30 ug/ml DOX
[42] = system: Candida dubliniensis; test: […] activity against 5FC- susceptible Candida dubliniensis isolate SA113T1 harboring plasmid pNIM1 carrying CdFCA1 gene by broth microdilution method in presence of 30 ug/ml DOX
[43] = system: Candida albicans; test: […] activity against Candida albicans by EUCAST method
[44] = system: Candida dubliniensis; test: […] activity against Candida dubliniensis isolate CD36b of Cd25 fingerprint group 1 and ITS genotype 1 by CLSI M27-A2 method
[45] = system: Candida dubliniensis; test: […] activity against 5FC-resistant Candida dubliniensis by NCCLS M27-A2 broth microdilution method
[46] = system: Candida dubliniensis; test: […] activity against Candida dubliniensis harboring plasmid p7276 by broth microdilution method in presence of 25 ug/ml DOX
[47] = system: Candida dubliniensis; test: […] activity against Candida dubliniensis isolate Eg207 of Cd25 fingerprint group 3 and ITS genotype 4 by CLSI M27-A2 method
[48] = system: Candida dubliniensis; test: […] activity against Candida dubliniensis isolate SA109 by broth microdilution method in presence of 30 ug/ml DOX
[49] = system: Candida dubliniensis; test: […] activity against Candida dubliniensis isolate harboring plasmid p7276 carrying GFP1T1 gene by broth microdilution method
[50] = system: Candida dubliniensis; test: […] activity against 5FC- […] Candida dubliniensis isolate SA109T2 harboring plasmid pNIM1 carrying CdFCA1 gene by broth microdilution method in presence of 30 ug/ml DOX
[51] = system: Candida dubliniensis; test: […] activity against Candida dubliniensis isolate SA109 by broth microdilution method in presence of 25 ug/ml DOX
[52] = system: Candida dubliniensis; test: […] activity against Candida dubliniensis isolate SA115 of Cd25 fingerprint group 1 and ITS genotype 1 by CLSI M27-A2 method
[53] = system: Candida dubliniensis; test: […] activity against Candida dubliniensis isolate SA113 of Cd25 fingerprint group 3 and ITS genotype 4 by CLSI M27-A2 method
[54] = system: Candida dubliniensis; test: […] activity against Candida dubliniensis isolate Eg201 of Cd25 fingerprint group 3 and ITS genotype 4 by CLSI M27-A2 method
[55] = system: Candida dubliniensis; test: […] activity against 5FC- resistant Candida dubliniensis isolate harboring plasmid p7276T3 carrying CdFCA1 gene by broth microdilution method
[56] = system: Candida dubliniensis; test: […] activity against Candida dubliniensis isolate SA109 of Cd25 fingerprint group 3 and ITS genotype 3 by CLSI M27-A2 method

`Nc1nc(=O)[nH]cc1F` [FLUCYTOSINE] showed an MIC [1] of no less than 128 µg/mL, an MIC [2] of no more than 0.25 µg/mL and an MIC [3] of no more than 0.25 µg/mL. The MIC [4] was no more than 0.25 µg/mL, the MIC [5] was no more than 0.25 µg/mL and the MIC [6] was no more than 0.25 µg/mL. For the same compound, the MIC [7] was no more than 0.25 µg/mL, the MIC [8] was no more than 0.25 µg/mL and the MIC [9] was 4 µg/mL (≈ 31 µM). It also gave an MIC [10] of no less than 128 µg/mL, an MIC [11] of no more than 0.25 µg/mL and an MIC [12] of no less than 128 µg/mL. For the same compound, the MIC [13] was no more than 0.25 µg/mL, the MIC [14] was no less than 128 µg/mL and the MIC [15] was no more than 0.25 µg/mL. It also gave an MIC [16] of no more than 0.25 µg/mL, an MIC [17] of no less than 128 µg/mL and an MIC [18] of no less than 128 µg/mL. It also gave an MIC [19] of no less than 128 µg/mL, an MIC [20] of no more than 0.25 µg/mL and an MIC [21] of no more than 0.25 µg/mL. For the same compound, the MIC [22] was no less than 128 µg/mL, the MIC [23] was no less than 128 µg/mL and the MIC [24] was no more than 0.25 µg/mL. The MIC [25] was no more than 0.125 µg/mL, the MIC [26] was no more than 0.25 µg/mL and the MIC [27] was no less than 128 µg/mL. The MIC [28] was no more than 0.25 µg/mL, the MIC [29] was no more than 0.25 µg/mL and the MIC [30] was no less than 128 µg/mL. The MIC [31] was no less than 128 µg/mL, the MIC [32] was no more than 0.25 µg/mL and the MIC [33] was no more than 0.25 µg/mL. For the same compound, the MIC [34] was no more than 0.25 µg/mL, the MIC [35] was no more than 0.25 µg/mL and the MIC [36] was greater than 64 µg/mL. The MIC [37] was no more than 0.25 µg/mL, the MIC [38] was no less than 128 µg/mL and the MIC [39] was no less than 128 µg/mL. It also gave an MIC [40] of no less than 128 µg/mL, an MIC [41] of no more than 0.25 µg/mL and an MIC [42] of no more than 0.25 µg/mL. For the same compound, the MIC [43] was no less than 0.06 µg/mL, the MIC [44] was no more than 0.25 µg/mL and the MIC [45] was no less than 128 µg/mL. For the same compound, the MIC [46] was no more than 0.25 µg/mL, the MIC [47] was no less than 128 µg/mL and the MIC [48] was no less than 128 µg/mL. It also gave an MIC [49] of no more than 0.25 µg/mL, an MIC [50] of no more than 0.25 µg/mL and an MIC [51] of no less than 128 µg/mL. It also gave an MIC [52] of no more than 0.25 µg/mL, an MIC [53] of no less than 128 µg/mL and an MIC [54] of no less than 128 µg/mL. It also gave an MIC [55] of no more than 0.25 µg/mL and an MIC [56] of no less than 128 µg/mL.

`O=c1[nH]cc(F)c(=O)[nH]1` [FLUOROURACIL] was tested, and the MIC [1] was 32 µg/mL (≈ 246 µM), the MIC [14] was 32 µg/mL (≈ 246 µM) and the MIC [16] was 8 µg/mL (≈ 61.5 µM). The MIC [17] was 32 µg/mL (≈ 246 µM), the MIC [18] was 32 µg/mL (≈ 246 µM) and the MIC [19] was 32 µg/mL (≈ 246 µM). The MIC [24] was 16 µg/mL (≈ 123 µM), the MIC [27] was 32 µg/mL (≈ 246 µM) and the MIC [28] was 32 µg/mL (≈ 246 µM). The MIC [29] was 32 µg/mL (≈ 246 µM), the MIC [30] was 32 µg/mL (≈ 246 µM) and the MIC [32] was 16 µg/mL (≈ 123 µM). It also gave an MIC [35] of 16 µg/mL (≈ 123 µM), an MIC [37] of 16 µg/mL (≈ 123 µM) and an MIC [40] of 8 µg/mL (≈ 61.5 µM). The MIC [44] was 32 µg/mL (≈ 246 µM), the MIC [47] was 32 µg/mL (≈ 246 µM) and the MIC [52] was 32 µg/mL (≈ 246 µM). For the same compound, the MIC [53] was 32 µg/mL (≈ 246 µM), the MIC [54] was 32 µg/mL (≈ 246 µM) and the MIC [56] was 8 µg/mL (≈ 61.5 µM).
